From patent US6498125B2, “Pyridine ketones useful as herbicides” (Syngenta Participations AG, priority 1998, dated 2002)

How the values were obtained:
[1] = tested on: Monocotyledonous and dicotyledonous test plants; experiment: Example B1: pre-emergence herbicidal action, 2 kg of AS/ha; type: in vivo; settings: 3 weeks, scale 1-9; for pre-emergence action rating, Avena: test plant Avena; for pre-emergence action rating, Cyperus: test plant Cyperus; for pre-emergence action rating, Setaria: test plant Setaria; for pre-emergence action rating, Sinapis: test plant Sinapis; for pre-emergence action rating, Solanum: test plant Solanum; for pre-emergence action rating, Stellaria: test plant Stellaria
Protocol: Monocotyledonous and dicotyledonous test plants are sown in standard soil in plastic pots. Immediately after sowing, the test substances are sprayed on (500 l of water/ha) as an aqueous suspension (prepared from a 25% wettable powder (Example F3, b) according to WO 97/34485) or emulsion (prepared from a 25% emulsion concentrate (Example F1, c)), corresponding to a dosage of 2 kg of AS/ha. The test plants are then grown under optimum conditions in a greenhouse. After a test period of 3 weeks, the test is evaluated with a nine-level scale of ratings (1=complete damage, 9=no effect). Ratings of 1 to 4 (in particular 1 to 3) mean good to very good herbicidal action.

[2] = tested on: Monocotyledonous and dicotyledonous test plants; experiment: Example B2: post-emergence herbicidal action, 2 kg of AS/ha; type: in vivo; design: key: 1 = complete damage, 9 = no effect; settings: 4- to 6-leaf stage, about 18 days, scale 1-9; for post-emergence action rating, Avena: test plant Avena; for post-emergence action rating, Setaria: test plant Setaria; for post-emergence action rating, Sinapis: test plant Sinapis; for post-emergence action rating, Solanum: test plant Solanum; for post-emergence action rating, Stellaria: test plant Stellaria
Protocol: Monocotyledonous and dicotyledonous test plants are grown in plastic pots with standard soil in a greenhouse and, in the 4- to 6-leaf stage, are sprayed with an aqueous suspension of the test substances of the formula 1, prepared from a 25% wettable powder (Example F3, b) according to WO 97134485) or with an emulsion of the test substances of the formula I, prepared from a 25% emulsion concentrate (Example F1, c) according to WO 97/34485), corresponding to a dosage of 2 kg of AS/ha (500 l of water/ha). The test plants are then grown further under optimum conditions in a greenhouse. After a test period of about 18 days, the test is evaluated with a nine-level scale of rating (1=complete damage, 9=no effect). Ratings of 1 to 4 (in particular 1 to 3) mean good to very good herbicidal action. In this test, the compounds of the formula I show strong herbicidal action.

| Compound | pre-emergence action rating, Avena [1] | pre-emergence action rating, Cyperus [1] | pre-emergence action rating, Setaria [1] | pre-emergence action rating, Sinapis [1] | pre-emergence action rating, Solanum [1] | pre-emergence action rating, Stellaria [1] | post-emergence action rating, Avena [2] | post-emergence action rating, Setaria [2] | post-emergence action rating, Sinapis [2] | post-emergence action rating, Solanum [2] | post-emergence action rating, Stellaria [2] |
| --- | --- | --- | --- | --- | --- | --- | --- | --- | --- | --- | --- |
| Cc1nc(C(F)(F)C(F)(F)F)ccc1C(=O)C1=C(O)C2CCC(C2)C1=O (centres unmarked) [Compound 1.109] | 2 | 2 | 2 | 2 | 1 | 3 | 2 | 2 | 1 | 2 | 2 |
| Cc1nc(C(F)(F)Cl)ccc1C(=O)C1=C(O)C2CCC(C2)C1=O (centres unmarked) [Compound 1.195] | 2 | 1 | 1 | 1 | 1 | 2 | 2 | 2 | 1 | 2 | 2 |
| Cc1cc(C(=O)C2=C(O)C3CCC(C3)C2=O)c(C)nc1C(F)(F)F (centres unmarked) [Compound 1.313] | 3 | 1 | 2 | 1 | 1 | 2 | 2 | 2 | 1 | 2 | 2 |
| Cc1nc(C(F)(F)F)ccc1C(=O)C1=C([O-])C2CCC(C2)C1=O.[K+] (centres unmarked) [Compound 1.376] | 2 | 1 | 1 | 2 | 1 | 2 | 1 | 2 | 1 | 2 | 2 |
| Cc1nc(C(F)(F)F)ccc1C(=O)C1=C(Sc2ccccc2)C2CCC(C2)C1=O (centres unmarked) [Compound 1.381] | 4 | 1 | 2 | 2 | 1 | 1 | 2 | 2 | 2 | 2 | 2 |
| CC(=O)OC1=C(C(=O)c2ccc(C(F)(F)F)nc2C)C(=O)C2CCC1C2 (centres unmarked) [Compound 1.401] | 2 | 1 | 1 | 2 | 1 | 2 | 2 | 2 | 2 | 2 | 2 |
| Cc1nc(C(F)(F)F)ccc1C(=O)C1=C(OC(=O)c2ccccc2)C2CCC(C2)C1=O (centres unmarked) [Compound 1.402] | 2 | 1 | 1 | 2 | 1 | 2 | 2 | 2 | 1 | 2 | 2 |
| Cc1nc(C(F)(F)F)ccc1C(=O)C1=C(OC(=O)C2CC2)C2CCC(C2)C1=O (centres unmarked) [Compound 1.403] | 2 | 1 | 1 | 1 | 1 | 2 | 2 | 2 | 1 | 2 | 2 |
| CCC(=O)OC1=C(C(=O)c2ccc(C(F)(F)F)nc2C)C(=O)C2CCC1C2 (centres unmarked) [Compound 1.404] | 2 | 1 | 1 | 2 | 1 | 2 | 2 | 2 | 1 | 1 | 2 |
| C=CC(=O)OC1=C(C(=O)c2ccc(C(F)(F)F)nc2C)C(=O)C2CCC1C2 (centres unmarked) [Compound 1.405] | 2 | 1 | 1 | 1 | 1 | 2 | 2 | 2 | 1 | 2 | 2 |
| CC=CC(=O)OC1=C(C(=O)c2ccc(C(F)(F)F)nc2C)C(=O)C2CCC1C2 (centres unmarked) [Compound 1.406] | 2 | 1 | 1 | 1 | 1 | 2 | 2 | 2 | 1 | 1 | 2 |
| CCOC(=O)OC1=C(C(=O)c2ccc(C(F)(F)F)nc2C)C(=O)C2CCC1C2 (centres unmarked) [Compound 1.409] | 1 | 1 | 1 | 1 | 1 | 1 | 2 | 1 | 1 | 1 | 2 |
| Cc1nc(C(F)(F)C(F)(F)C(F)(F)C(F)(F)F)ccc1C(=O)C1=C(O)C2CCC(C2)C1=O (centres unmarked) [Compound 1.411] | 3 | 2 | 1 | 2 | 1 | 2 | 2 | 2 | 1 | 2 | 2 |
